From patent US7459284B2, “Chemiluminescent acridinium compounds and analogues thereof as substrates of hydrolytic enzymes” (Siemens Healthcare Diagnostics Inc., priority 1999, dated 2008)
Where a name gives a salt, the structure may show the parent alone. Read-outs that look alike come from different tables or passages of the source.

Key:
[1] = Light emission spectra by Fast Spectral Scanning System (FSSS); type: physicochemical
Experimental: The light emission spectra of compounds 1˜12 and 15˜18 were determined by a Fast Spectral Scanning System (FSSS) of Photo Research (a division of Kollmorgen Corp.) of Burbank, Calif., U.S.A. The experiment was carried out in a dark room. Each compound was dissolved in acetonitrile or N,N-dimethylformamide. The resulting concentrate was diluted with the same solvent to form the working solution, which upon flashing gave a light emission with an adequate intensity. A typical experiment utilized 10˜100 μg or more of the sample in 500 μl of the solvent contained in a 13×100 mm borosilicate test tube. The tube was placed on a test tube rack raised to a proper height. A piece of aluminum foil was placed on the back of the tube to enhance the detectability of the emitted light. The FSSS optical head was placed in front of the tube at an approximate distance of about 130 mm with its lens focused on the liquid in the tube. The sample solution was first treated with 0.35 ml of the Flashing Reagent #1 (Bayer Diagnostics) containing 0.1 N HNO3 and 0.5% H2O2. The room was then darkened, and 0.35 ml of the Flashing Reagent #2 (Bayer Diagnostics) containing 0.25 N NaOH and 0.5% ARQUAD was added to the reaction mixture immediately. (See U.S. Pat. No. 4,927,769, which is commonly assigned and incorporated herein by reference.) The light which was generated instantaneously following the addition of the Reagent #2 was recorded by FSSS for 5 seconds starting from about one second before the Reagent #2 was added.

[2] = Quantum yield when flashed with alkaline solution first, then hydrogen peroxide; type: physicochemical; settings: 0.25 N sodium hydroxide with 0.5% AQUARD first, followed by 0.5% hydrogen peroxide
Experimental: More specifically, when a solution of 1 is treated with 0.25 N sodium hydroxide solution containing 0.5% AQUARD, followed by 0.5% hydrogen peroxide, the quantum yield of 1 is lowered by more than 30 fold. […] Thus, to the advantage of better distinction between the signals of certain chemiluminescent products and their substrates, preferably, said alkaline solution contains sodium hydroxide at concentration of 0.01 to 1.0 N, and AQUARD at concentration of 0.01 to 1%, and said hydrogen peroxide solution contains hydrogen peroxide at concentration of 0.001 to 5%. More preferably, said alkaline solution contains 0.25 N sodium hydroxide and 0.5% AQUARD, and said hydrogen peroxide solution contains 0.5% hydrogen peroxide.

alkaline phosphatase [3] = target: T1, alkaline phosphatase (Bos taurus, UniProt P19111); experiment: Alkaline phosphatase assay using 2-Phos-DMAE (1) as chemiluminescent substrate; type: biochemical; settings: 0.1 mM substrate, pH 9 Tris, 45° C., 1 hour; R2228P PMT, LL700 filter, 4° C.
Experimental: With one or more of the above approaches combined, several assay systems based on the principle of detecting the long emission signal generated by the action of AP on 2-Phos-DMAE (1) are constructed, and disclosed in the section of Examples. One example (Example 17) consists of the incubation of AP standards in a substrate solution containing 0.1 mM 2-Phos-DMAE (1), 1 mM magnesium chloride in 100 mM, pH 9 Tris buffer at 45° C. for 1 hour. The light outputs were measured on a luminometer equipped with a red-sensitive PMT (R2228P) and a long pass filter (LL700), which is placed in a 4° C. cold room. The sample was treated first with 0.25 N sodium hydroxide solution containing 0.5% AQUARD, immediately followed by 0.5% hydrogen peroxide.
The substrate solution of 2-Phos-DMAE (1) was prepared at 0.1 mM in 100 mM, pH 9.0 Tris buffer containing 1 mM MgCl2. […] The light outputs were measured for 2 seconds on Bayer Diagnostics Magic Lite Analyzer 1 (MLA-1) equipped with R268 PMT and two LL650 long wavelength pass filters (Corion, Lot No. CFS-002645). […]
According to Example 16, an assay of alkaline phosphatase was carried out by adding 5 μl of the AP standard to 95 μl of the substrate solution. […] The light outputs were measured for 2 seconds on MLA-1 equipped with R2228P PMT and a LL700 long wavelength pass filters, and the unit was pre-cooled in a cold room (4° C).

alkaline phosphatase [4] = target: T1, alkaline phosphatase; experiment: Enzymatic conversion of substrate by alkaline phosphatase (HPLC analysis); type: biochemical; settings: alkaline aqueous medium; about 1 hour
Experimental: A 1 mM DMF solution of the acridinium 3-enol-phosphate (13) was mixed with 150 μL of 100 mM Tris pH 9 also containing 1 mM MgCl2. Alkaline phosphatase (5 μl of a 2 mg/ml solution) was added and the reaction was incubated at room temperature for ˜1 hour. […] The product was isolated by semi-preparative HPLC using a 7.8×300 mm, C18 column. MALDI-TOF MS of the product indicated this was indeed the keto product (14): m/z 521.36 obs. (520.56 calc.).
A 20 μL DMF solution of the acridan (15) (1.7 mM) was combined with 180 μl of 0.15 M 2-amino-2-methyl-1-propanol pH 10.3 also containing 1 mM magnesium acetate. A clear blue solution was obtained (0.17 mM substrate), which was then treated with alkaline phosphatase (10^−10 moles). The blue color was discharged instantly. […] The reaction mixture was then evaluated by the FSSS to determine the light emission spectrum of the product, which is shown in FIG. 2N. The product was isolated by semi-preparative HPLC. […] (521.56 calc.).

[5] = strong alkaline solution; disclosed in WO 00/09487; cited from earlier work
[6] = FSSS, hydrogen peroxide in strong alkaline solution
[7] = spectral region with signal intensity above 5% of peak height, FSSS scanning limit 380-780 nm, flashed with 0.1 N HNO3/0.5% H2O2 then 0.25 N NaOH/0.5% ARQUAD

T1 sequence (P19111 20-506): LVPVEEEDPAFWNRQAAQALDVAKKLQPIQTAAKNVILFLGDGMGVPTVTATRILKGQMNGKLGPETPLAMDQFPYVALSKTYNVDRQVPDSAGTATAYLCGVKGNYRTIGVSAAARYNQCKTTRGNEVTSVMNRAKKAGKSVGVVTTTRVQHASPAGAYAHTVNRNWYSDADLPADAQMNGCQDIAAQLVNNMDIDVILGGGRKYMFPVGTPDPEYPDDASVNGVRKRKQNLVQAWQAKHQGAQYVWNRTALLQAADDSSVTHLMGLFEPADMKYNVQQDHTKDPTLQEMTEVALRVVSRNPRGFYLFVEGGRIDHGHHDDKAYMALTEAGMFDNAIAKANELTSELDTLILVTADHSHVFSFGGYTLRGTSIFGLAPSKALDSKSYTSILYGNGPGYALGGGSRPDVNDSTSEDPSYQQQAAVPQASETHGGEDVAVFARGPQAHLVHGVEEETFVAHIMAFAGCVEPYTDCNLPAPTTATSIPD

Molecule	Emission Maximum [1, 6]	Emission Range [1, 7]	other results
Cc1cc(C(=O)O)cc(C)c1OC(=O)c1c2ccccc2[n+](C)c2ccc(OP(=O)(O)O)cc12.[Na+].[Na+] [Compound 1, (2′,6′-dimethyl-4′-carboxyl)phenyl 10-methyl-2-Phosphoryloxy-acridinium-9-carboxylate bromide]	478 nm	430-600 nm	lowering of quantum yield [2]: more than 30 fold; level of alkaline phosphatase detected (alkaline phosphatase [3]): below 1×10^−18 mole; conversion by alkaline phosphatase (alkaline phosphatase [4]): excellent substrate
Cc1cc(C(=O)O)cc(C)c1OC(=O)c1c2ccccc2[n+](C)c2ccc(O)cc12 [Compound 2, (2′,6′-dimethyl-4′-carboxyl)phenyl 2-hydroxy-10-methyl-acridinium-9-carboxylate trifluoroacetate]	602 nm	500-780^ nm	bathochromic shift of emission maximum ([1]; compound 2 relative to compound 1): 128 nm; lowering of quantum yield [2]: basically not affected; emission λmax [5]: 604 nm
Cc1cc(C(=O)OCc2ccccc2)cc(C)c1OC(=O)c1c2ccccc2[n+](C)c2ccc(OP(=O)(O)O)cc12 [Compound 3, (2′,6′-dimethyl-4′-benzyloxy-carbonyl)phenyl 2-phosphoryloxy-10-methyl-acridinium-9-carboxylate trifluoroacetate]	474 nm	430-600 nm	
Cc1cc(C(=O)OCc2ccccc2)cc(C)c1OC(=O)c1c2ccccc2[n+](C)c2ccc(O)cc12 [Compound 4, (2′,6′-dimethyl-4′-benzyl-oxycarbonyl)phenyl 2-hydroxy-10-methyl-acridinium-9-carboxylate trifluoroacetate]	604 nm	500-780^ nm	
C[n+]1c2ccccc2c(C(=O)Oc2ccccc2)c2cc(OP(=O)(O)O)ccc21 [Compound 5, phenyl 10-methyl-2-Phosphoryloxy-acridinium-9-carboxylate trifluoroacetate]	478 nm	430-600 nm	
C[n+]1c2ccccc2c(C(=O)Oc2ccccc2)c2cc(O)ccc21 [Compound 6, phenyl 2-hydroxy-10-methyl-acridinium-9-carboxylate trifluoromethanesulfonate]			Emission Maximum [1]: 600 nm; Emission Range [1]: 500-780^ nm
Cc1cc(C(=O)O)cc(C)c1OC(=O)c1c2ccccc2[n+](CCCCS(=O)(=O)[O-])c2ccc(OP(=O)(O)O)cc12 [Compound 7, (2′, 6′-dimethyl-4′-carboxyl)phenyl 2-phosphoryloxy-10-sulfobutyl-acridinium-9-carboxylate]	474 nm	430-600 nm	
Cc1cc(C(=O)O)cc(C)c1OC(=O)c1c2ccccc2[n+](CCCCS(=O)(=O)[O-])c2ccc(O)cc12 [Compound 8, (2′, 6′-dimethyl-4′-carboxyl)phenyl 2-hydroxy-10-sulfobutyl-acridinium-9-carboxylate]	594 nm	500-780^ nm	
COc1ccc2c(c1)c(C(=O)Oc1c(C)cc(C(=O)O)cc1C)c1cc(OP(=O)(O)O)ccc1[n+]2C.[Na+].[Na+] [Compound 9, (2′,6′-dimethyl-4′-carboxyl)phenyl 2-phosphoryloxy-7-methoxy-10-methyl acridinium-9-carboxylate]	476 nm	440-600 nm	
COc1ccc2c(c1)c(C(=O)Oc1c(C)cc(C(=O)O)cc1C)c1cc(O)ccc1[n+]2C [Compound 10, (2′,6′-dimethyl-4′-carboxyl)phenyl 2-hydroxy-7-methoxy-10-methyl acridinium-9-carboxylate]	674 nm	520-780^ nm	longer emission maxima than unmethoxylated compound 2 ([1]; 2-OH-7-MeO-DMAE vs 2-OH-DMAE): 60-70 nm
CN1c2ccccc2C2(Oc3ccccc3OC2=O)c2cc(OP(=O)(O)O)ccc21 (centres unmarked) [Compound 11, 2-Phos-Spiroacridan]	474 nm	430-600 nm	
Cc1cc(C(=O)O)cc(C)c1OC(=O)c1c2ccccc2[n+](C)c2cc(/C(=C/c3ccc(O)cc3)OP(=O)(O)O)ccc12 [Compound 13, (2′,6′-dimethyl-4′-carboxyl)phenyl 3-(β-phosphoryloxy-4′-hydroxystyryl)-10-methyl acridinium-9-carboxylate trifluoromethanesulfonate]			conversion by alkaline phosphatase (alkaline phosphatase [4]): complete conversion
C[n+]1c2ccccc2c(C(=O)Oc2ccc(O)cc2)c2ccccc21 [Compound 18, 4′-hydroxyphenyl 10-methyl acridinium-9-carboxylate trifluoromethanesulfonate]			Emission Maximum [1]: 452 nm; Emission Range [1]: 410-540 nm
(2′,6′-dimethyl-4′-carboxyl)phenyl 3-(β-phosphoryloxy-4′-hydroxystyryl)-10-methyl acridan [Compound 15]	678 nm	520-780^ nm	conversion by alkaline phosphatase (alkaline phosphatase [4]): clean conversion
